Laboratory results as given in article PMC5049785, “Characterization of Novel Antimalarial Compound ACT-451840: Preclinical Assessment of Activity and Dose–Efficacy Modeling” (PLoS Medicine, 2016).
Read-outs that look alike come from different tables or passages of the source.

Assays:
[1] = cited from earlier work
[2] = tested on: P. berghei; conditions: ± coefficient of variation
Procedure: A single compartment PK model with saturable absorption was obtained using naïve pooling to fit simultaneously the observed blood concentration time data from the PK studies done at a dose of 10, 100, and 300 mg/kg, as described above. Using this model, blood concentration time profiles were predicted for all dosing regimens used in the mouse antimalarial efficacy studies. Cmax, AUC, and time above a threshold concentration were subsequently calculated using non-compartmental analysis. PD modeling was done using an Emax model using Cmax, AUC, or time above a threshold concentration versus survival or antimalarial activity. All modeling and PK analyses were done using Phoenix Winonlin 6.3 (Cetara, Princeton, US).

[3] = tested on: P. falciparum stage V gametocytes / oocysts in Anopheles stephensi; experiment: Standard membrane feeding assay, indirect mode; assay type: cell-based, Plasmodium falciparum; conditions: 24 h pre-exposure of gametocytes
Procedure: ACT-451840 was tested in the standard membrane feeding assay at TropIQ (Nijmegen, The Netherlands) in two modes, as previously described. In the direct mode, the compound was directly added to a bloodmeal containing mature stage V gametocytes that was fed to Anopheles stephensi mosquitoes. […] Seven days after the bloodmeal, the number of oocysts in the midgut was determined by microscopy for both modes. […] Vehicle control (0.1% DMSO) and positive control (10 μM dihydroartemisinin) were included. Twenty mosquitoes were dissected per sample, and oocyst load was analyzed per mosquito.

[4] = Safety pharmacology in rats; assay type: in vivo; conditions: rats dosed up to 1,000 mg/kg
[5] = tested on: P. falciparum NF54 male gametocytes; experiment: P. falciparum dual gamete formation assay, male; assay type: cell-based, Plasmodium falciparum; conditions: 24 h incubation; ± SD; read-out: IC50 male gamete formation (exflagellation centers)
Procedure: Mature P. falciparum NF54 gametocytes were cultured at Imperial College London (London, United Kingdom), as previously described. […] Male gamete formation was quantified by computer-aided automated identification and counting of exflagellation centers. Female gamete formation was visualized by live immunofluorescence with a Cy3-conjugated antibody specific for Pfs25—a female gamete expressed surface protein. […] IC50 values were calculated using GraphPad Prism version 6 using the logarithmic versus normalized response (variable slope) function (Graphpad Software, San Diego, US).

[6] = Single compartment PK model with saturable absorption (predicted blood PK); design: species or system mice; conditions: for Time over threshold (h), predicted: threshold 1,000 ng/mL
Procedure: In order to analyze the PK/PD relationship, drug exposure was predicted for all tested doses in P. berghei mouse model using a single compartment model with saturable absorption based on the concentration–time profile observed after 10, 100, and 300 mg/kg single-dose regimen in healthy mice.

[7] = tested on: P. falciparum V1/S (Vietnam); experiment: [3H]-hypoxanthine incorporation assay, V1/S; assay type: cell-based, Plasmodium falciparum; conditions: read-out: 50% inhibitory concentration (IC50); V1/S, resistance CQ, SUL, PYR, CYC; mean ± SD
[8] = mouse PK model parameter estimate
[9] = single-dose regimen, oral 10 mg/kg
[10] = single-dose regimen, oral 15 mg/kg
[11] = single-dose regimen, oral 20 mg/kg
[12] = single-dose regimen, oral 25 mg/kg
[13] = single-dose regimen, oral 30 mg/kg
[14] = single-dose regimen, oral 60 mg/kg
[15] = single-dose regimen, oral 80 mg/kg
[16] = single-dose regimen, oral 100 mg/kg
[17] = single-dose regimen, oral 300 mg/kg
[18] = triple-dose regimen, oral 3 mg/kg once per day
[19] = triple-dose regimen, oral 10 mg/kg once per day
[20] = triple-dose regimen, oral 30 mg/kg once per day
[21] = triple-dose regimen, oral 50 mg/kg once per day
[22] = triple-dose regimen, oral 100 mg/kg once per day
[23] = triple-dose regimen, oral 300 mg/kg once per day
[24] = triple-dose regimen, oral 2 x 15 mg/kg (twice per day)
[25] = triple-dose regimen, oral 2 x 30 mg/kg (twice per day)

Compound: CC(=O)N1CCN(c2ccc(CN(C(=O)/C=C/c3ccc(C(C)(C)C)cc3)[C@@H](Cc3ccccc3)C(=O)N3CCN(Cc4ccc(C#N)cc4)CC3)cc2)CC1 [ACT-451840]
- exposure (AUC) observed in humans ([1]; single 500 mg dose, fed human subjects): 1,408 ng*h/mL
- terminal half-life ([1]; single ascending dose study): 34 h
- tolerability ([1]; single ascending dose, first-in-man study in healthy male participants): well tolerated
- Antimalarial activity EX50, X = AUC ([2]; Emax model): 8,100 (ng*h/mL) ± 35%
- Antimalarial activity EX50, X = Cmax ([2]; Emax model): 930 (ng/mL) ± 36%
- Antimalarial activity EX50, X = time above threshold ([2]; Emax model): 0.14 (h) ± 3,000%
- Survival E0, model versus AUC ([2]; Emax model): 5.1 (day) ± 17%
- Survival E0, model versus Cmax ([2]; Emax model): 4 (day) ± 54%
- Survival E0, model versus time above threshold ([2]; Emax model): 5.9 (day) ± 12%
- Survival EX50, X = AUC ([2]; Emax model): 170,000 (ng*h/mL) ± 16%
- Survival EX50, X = Cmax ([2]; Emax model): 15,000 (ng/mL) ± 170%
- Survival EX50, X = time above threshold ([2]; Emax model): 150 (h) ± 52%
- Antimalarial activity Emax, model versus AUC [2]: 110 (%) ± 8.3%
- Antimalarial activity Emax, model versus Cmax [2]: 130 (%) ± 11%
- Antimalarial activity Emax, model versus time above threshold [2]: 100 (%) ± 38%
- Survival Emax, model versus AUC [2]: 35 (day) ± 35%
- Survival Emax, model versus Cmax [2]: 62 (day) ± 120%
- Survival Emax, model versus time above threshold [2]: 70 (day) ± 71%
- IC50 ([3]; oocysts counted 7 d after bloodmeal, read-out: IC50 oocyst development in the mosquito (oocyst intensity)): 30 nM
- IC50 ([3]; read-out: IC50 prevalence of infection (number of infected mosquitoes)): 104 nM
- effects on central nervous and respiratory parameters [4]: no effects
- IC50 [5]: 5.89 nM
- total AUC giving an ED90 ([6]; P. berghei model, triple-dose regimen of 13 mg/kg): 16,300 ng*h/mL
- Clearance/bioavailability [6, 8]: 2.4 L/h
- Concentration at half the maximal absorption [6, 8]: 64000 ng/mL
- Max Absorption [6, 8]: 21 µg/h/kg
- Volume of distribution/bioavailability [6, 8]: 4.3 L/kg
- Cmax (ng/mL), predicted [6, 9]: 617 ng/mL
- Tmax (h), predicted [6, 9]: 3 h
- Total AUC over the treatment period (ng/mL*h), predicted [6, 9]: 4170 ng·h/mL
- Time over threshold (h), predicted [6, 9]: 0 h
- Cmax (ng/mL), predicted [6, 10]: 901 ng/mL
- Tmax (h), predicted [6, 10]: 3 h
- Total AUC over the treatment period (ng/mL*h), predicted [6, 10]: 6260 ng·h/mL
- Time over threshold (h), predicted [6, 10]: 0 h
- Cmax (ng/mL), predicted [6, 11]: 1170 ng/mL
- Tmax (h), predicted [6, 11]: 3 h
- Total AUC over the treatment period (ng/mL*h), predicted [6, 11]: 8350 ng·h/mL
- Time over threshold (h), predicted [6, 11]: 0 h
- Cmax (ng/mL), predicted [6, 12]: 1420 ng/mL
- Tmax (h), predicted [6, 12]: 3 h
- Total AUC over the treatment period (ng/mL*h), predicted [6, 12]: 10400 ng·h/mL
- Time over threshold (h), predicted [6, 12]: 0 h
- Cmax (ng/mL), predicted [6, 13]: 1670 ng/mL
- Tmax (h), predicted [6, 13]: 3 h
- Total AUC over the treatment period (ng/mL*h), predicted [6, 13]: 12500 ng·h/mL
- Time over threshold (h), predicted [6, 13]: 0 h
- Cmax (ng/mL), predicted [6, 14]: 2900 ng/mL
- Tmax (h), predicted [6, 14]: 4 h
- Total AUC over the treatment period (ng/mL*h), predicted [6, 14]: 25100 ng·h/mL
- Time over threshold (h), predicted [6, 14]: 7 h
- Cmax (ng/mL), predicted [6, 15]: 3540 ng/mL
- Tmax (h), predicted [6, 15]: 4 h
- Total AUC over the treatment period (ng/mL*h), predicted [6, 15]: 33400 ng·h/mL
- Time over threshold (h), predicted [6, 15]: 9 h
- Cmax (ng/mL), predicted [6, 16]: 4090 ng/mL
- Tmax (h), predicted [6, 16]: 6 h
- Total AUC over the treatment period (ng/mL*h), predicted [6, 16]: 41800 ng·h/mL
- Time over threshold (h), predicted [6, 16]: 11 h
- Cmax (ng/mL), predicted [6, 17]: 6690 ng/mL
- Tmax (h), predicted [6, 17]: 6.5 h
- Total AUC over the treatment period (ng/mL*h), predicted [6, 17]: 126000 ng·h/mL
- Time over threshold (h), predicted [6, 17]: 24 h
- Cmax (ng/mL), predicted [6, 18]: 192 ng/mL
- Tmax (h), predicted [6, 18]: 27 h
- Total AUC over the treatment period (ng/mL*h), predicted [6, 18]: 3750 ng·h/mL
- Time over threshold (h), predicted [6, 18]: 0 h
- Cmax (ng/mL), predicted [6, 19]: 617 ng/mL
- Tmax (h), predicted [6, 19]: 27 h
- Total AUC over the treatment period (ng/mL*h), predicted [6, 19]: 12500 ng·h/mL
- Time over threshold (h), predicted [6, 19]: 0 h
- Cmax (ng/mL), predicted [6, 20]: 1,670 ng/mL
- Tmax (h), predicted [6, 20]: 51 h
- Total AUC over the treatment period (ng/mL*h), predicted [6, 20]: 37600 ng·h/mL
- Time over threshold (h), predicted [6, 20]: 0 h
- Cmax (ng/mL), predicted [6, 21]: 2530 ng/mL
- Tmax (h), predicted [6, 21]: 27 h
- Total AUC over the treatment period (ng/mL*h), predicted [6, 21]: 62700 ng·h/mL
- Time over threshold (h), predicted [6, 21]: 16 h
- Cmax (ng/mL), predicted [6, 22]: 4100 ng/mL
- Tmax (h), predicted [6, 22]: 52 h
- Total AUC over the treatment period (ng/mL*h), predicted [6, 22]: 125000 ng·h/mL
- Time over threshold (h), predicted [6, 22]: 32 h
- Cmax (ng/mL), predicted [6, 23]: 6830 ng/mL
- Tmax (h), predicted [6, 23]: 54 h
- Time over threshold (h), predicted [6, 23]: 72 h
- Cmax (ng/mL), predicted [6, 24]: 1060 ng/mL
- Tmax (h), predicted [6, 24]: 35 h
- Total AUC over the treatment period (ng/mL*h), predicted [6, 24]: 37600 ng·h/mL
- Time over threshold (h), predicted [6, 24]: 0 h
- Cmax (ng/mL), predicted [6, 25]: 1980 ng/mL
- Tmax (h), predicted [6, 25]: 59 h
- Total AUC over the treatment period (ng/mL*h), predicted [6, 25]: 75200 ng·h/mL
- Time over threshold (h), predicted [6, 25]: 8 h
- IC50 [7]: 0.3 nM
